Molecular target: T1, Recombinant human GSK3β (Homo sapiens, UniProt P49841)
T1 construct: His-tag; made in house; host or cells: Sf9 insect cells / baculovirus
Test: GSK-3β (Glycogen Synthase Kinase) cell free enzyme assay
Assay type: biochemical
Settings: 1 μM; Examples 201-221
Method in brief: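 Recombinant human GSK3β, expressed in SF9/baculovirus cells and His-tag purified on Ni-NTA Superflow, was preincubated with test agent for 30 minutes at room temperature. Substrate mix was then added to start the reaction in 8 mM MOPS (pH 7.0), 10 mM magnesium acetate, 0.2 mM EDTA, 1 mM DTT, 2 uM cold ATP, 0.025 uCi/well [33P]ATP (120 uL) and 1.0 uM biotinylated peptide. Reactions ran at RT for 60 min.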

T1 sequence (P49841 whole entry): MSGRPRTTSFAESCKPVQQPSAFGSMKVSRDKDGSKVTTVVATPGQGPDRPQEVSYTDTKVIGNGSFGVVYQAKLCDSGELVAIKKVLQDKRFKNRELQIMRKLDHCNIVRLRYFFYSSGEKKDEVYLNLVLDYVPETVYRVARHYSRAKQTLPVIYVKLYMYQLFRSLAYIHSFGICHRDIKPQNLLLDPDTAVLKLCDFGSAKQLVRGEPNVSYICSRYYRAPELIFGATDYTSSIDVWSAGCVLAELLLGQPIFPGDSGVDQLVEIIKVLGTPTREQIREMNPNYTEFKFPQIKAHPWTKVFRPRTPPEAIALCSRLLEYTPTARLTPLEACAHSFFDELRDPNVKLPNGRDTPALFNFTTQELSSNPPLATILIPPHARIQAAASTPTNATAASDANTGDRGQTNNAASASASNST

| Percent inhibition at 1 μM | Substance |
| --- | --- |
| 93% | Methyl (1R,5S)-8-(1-methyl- 6-oxo-4-pyridin-4-yl-16- dihydropyrimidin-2-yl)-38- diazabicyclo[3.2.1]octane-3- carboxylate [Example 202] |
| 93% | Methyl (3a,S5,S7,aR)-3a- methyl-5-[methyl(1-methyl- 6-oxo-4-pyridin-4-yl-16- dihydropyrimidin-2- yl)amino]octahydro-1H- indole-1-carboxylate [Example 212] |

— patent publication US20100292205A1, “Pyrimidone Compounds As GSK-3 Inhibitors” (PFIZER INC., priority 2006, published 2010)
